Source: patent US10239832B2, “N-(1-hydroxy-3-(pyrrolidinyl)propan-2-yl)pyrrolidine-3-carboxamide derivatives as glucosylceramide synthase inhibitors” (BIOMARIN PHARMACEUTICAL INC., priority 2013, dated 2019)

Biological target: T1, GCS (Canis lupus familiaris, UniProt A0A8I3MXG6)
T1 construct: endogenous in cells; host or cells: MDCK (Madin-Darby canine kidney) cells, whole-cell lysate
T1 sequence (A0A8I3MXG6 1-394): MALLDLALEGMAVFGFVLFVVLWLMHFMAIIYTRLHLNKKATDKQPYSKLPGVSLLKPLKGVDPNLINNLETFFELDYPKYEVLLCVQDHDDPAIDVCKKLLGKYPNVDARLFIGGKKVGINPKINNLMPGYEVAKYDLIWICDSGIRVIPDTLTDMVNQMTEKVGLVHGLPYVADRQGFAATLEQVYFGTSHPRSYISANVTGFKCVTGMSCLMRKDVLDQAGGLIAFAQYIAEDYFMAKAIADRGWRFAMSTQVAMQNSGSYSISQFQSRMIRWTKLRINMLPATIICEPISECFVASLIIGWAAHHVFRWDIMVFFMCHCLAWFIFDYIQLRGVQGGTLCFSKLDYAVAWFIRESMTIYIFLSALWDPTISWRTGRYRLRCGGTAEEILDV
Experiment: GCS enzymatic assay (MDCK cell lysate, NBD-ceramide to glucosylceramide, LC/MS)
Format: biochemical, canine
Conditions: Table 2, the table does not say which of the assays; for IC50: class symbols A, B, C, read-out: Data Range (IC50 values); for Data Range (% inhibition): class symbols D, E, F, NA (not active)
Method in brief: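 Dog MDCK cell lysate served as enzyme source, with NBD-ceramide turned over to glucosylceramide and 0.1% DMSO as mock control. The reaction was stopped with acetonitrile. Both lipids were quantified by LC/MS/MS in ESI positive MRM mode against a tolbutamide internal standard, giving IC50 or percent inhibition.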

O=C(N[C@H](CN1CCCC1)[C@H](O)c1ccc2c(c1)OCCO2)C1CCN(c2ccc(F)cc2)C1 (stereo partly drawn) [Compound 24B, N-((1R,2R)-1-(2,3-dihydrobenzo[b][1,4]dioxin-6-yl)-1-hydroxy-3-(pyrrolidin-1-yl)propan-2-yl)-1-(4-fluorophenyl)pyrrolidine-3-carboxamide]
IC50: 1 to 30 nM

O=C(N[C@H](CN1CCCC1)[C@H](O)c1ccc2c(c1)OCCO2)[C@H]1CCN(c2ccc(F)cc2)C1 [Compound 24C, (S)-N-((1R,2R)-1-(2,3-dihydrobenzo[b][1,4]dioxin-6-yl)-1-hydroxy-3-(pyrrolidin-1-yl)propan-2-yl)-1-(4-fluorophenyl)pyrrolidine-3-carboxamide]
Data Range (% inhibition): NA (not active—a negative value was generated for % inhibition)

O=C(N[C@H](CN1CCC1)[C@H](O)c1cc(F)c2c(c1)OCCO2)[C@@H]1CCN(c2ccc(Cl)cc2)C1 [Compound 25, (R)-N-((1R,2R)-3-(azetidin-1-yl)-1-(8-fluoro-2,3-dihydrobenzo[b][1,4]dioxin-6-yl)-1-hydroxypropan-2-yl)-1-(4-chlorophenyl)pyrrolidine-3-carboxamide]
IC50: 1 to 30 nM

O=C(N[C@H](CN1CCC1)[C@H](O)c1cc(F)c2c(c1)OCCO2)[C@H]1CCN(c2ccc(Cl)cc2)C1 [Compound 25B, (S)-N-((1R,2R)-3-(azetidin-1-yl)-1-(8-fluoro-2,3-dihydrobenzo[b][1,4]dioxin-6-yl)-1-hydroxypropan-2-yl)-1-(4-chlorophenyl)pyrrolidine-3-carboxamide]
Data Range (% inhibition): F (1-49% (or less than 50%))

O=C(N[C@H](CN1CCCC1)[C@H](O)c1ccc2c(c1)OCCO2)C1CCN(C2CCCCC2)C1 (stereo partly drawn) [Compound 26, 1-cyclohexyl-N-((1R,2R)-1-(2,3-dihydrobenzo[b][1,4]dioxin-6-yl)-1-hydroxy-3-(pyrrolidin-1-yl)propan-2-yl)pyrrolidine-3-carboxamide]
Data Range (% inhibition): NA (not active—a negative value was generated for % inhibition)

O=C(N[C@H](CN1CCCC1)[C@H](O)c1ccc(OC2CC2)nc1)[C@@H]1CCN(c2ccc(F)cc2)C1 [Compound 27, (R)-N-((1R,2R)-1-(6-cyclopropoxypyridin-3-yl)-1-hydroxy-3-(pyrrolidin-1-yl)propan-2-yl)-1-(4-fluorophenyl)pyrrolidine-3-carboxamide]
Data Range (% inhibition): E (50-74% (or less than 75%))

O=C(N[C@H](CN1CCCC1)[C@H](O)c1ccc(OC2CC2)nc1)[C@H]1CCN(c2ccc(F)cc2)C1 [Compound 27C, (S)-N-((1R,2R)-1-(6-cyclopropoxypyridin-3-yl)-1-hydroxy-3-(pyrrolidin-1-yl)propan-2-yl)-1-(4-fluorophenyl)pyrrolidine-3-carboxamide]
Data Range (% inhibition): F (1-49% (or less than 50%))

O=C(N[C@H](CN1CCCC1)[C@H](O)c1ccc2c(c1)OCCO2)[C@@H]1CCN(c2ccc(Cl)cn2)C1 [Compound 28, (R)-1-(5-chloropyridin-2-yl)-N((1R,2R)-1-(2,3-dihydrobenzo[b][1,4]dioxin-6-yl)-1-hydroxy-3-(pyrrolidin-1-yl)propan-2-yl)pyrrolidine-3-carboxamide]
Data Range (% inhibition): E (50-74% (or less than 75%))

O=C(N[C@H](CN1CCCC1)[C@H](O)c1ccc2c(c1)OCCO2)C1CCN(c2ccc(Cl)cn2)C1 (stereo partly drawn) [Compound 28C, 1-(5-chloropyridin-2-yl)-N-((1R,2R)-1-(2,3-dihydrobenzo[b][1,4]dioxin-6-yl)-1-hydroxy-3-(pyrrolidin-1-yl)propan-2-yl)pyrrolidine-3-carboxamide]
Data Range (% inhibition): F (1-49% (or less than 50%))

O=C(N[C@H](CN1CCCC1)[C@H](O)c1ccc2c(c1)OCCO2)[C@H]1CCN(c2ccc(Cl)cn2)C1 [Compound 28D, (S)-1-(5-chloropyridin-2-yl)-N-((1R,2R)-1-(2,3-dihydrobenzo[b][1,4]dioxin-6-yl)-1-hydroxy-3-(pyrrolidin-1-yl)propan-2-yl)pyrrolidine-3-carboxamide]
Data Range (% inhibition): NA (not active—a negative value was generated for % inhibition)

CC(C)Oc1ccc([C@@H](O)[C@@H](CN2CCCC2)NC(=O)[C@@H]2CCN(c3ccc(Cl)cc3)C2)cn1 [Compound 29, (R)-1-(4-chlorophenyl)-N-((1R,2R)-1-hydroxy-1-(6-isopropoxypyridin-3-yl)-3-(pyrrolidin-1-yl)propan-2-yl)pyrrolidine-3-carboxamide]
Data Range (% inhibition): F (1-49% (or less than 50%))

CC(C)Oc1ccc([C@@H](O)[C@@H](CN2CCCC2)NC(=O)[C@H]2CCN(c3ccc(Cl)cc3)C2)cn1 [Compound 29B, (S)-1-(4-chlorophenyl)-N-((1R,2R)-1-hydroxy-1-(6-isopropoxypyridin-3-yl)-3-(pyrrolidin-1-yl)propan-2-yl)pyrrolidine-3-carboxamide]
Data Range (% inhibition): F (1-49% (or less than 50%))

CCCCN1CCC(C(=O)N[C@H](CN2CCCC2)[C@H](O)c2ccc3c(c2)OCCO3)C1 (stereo partly drawn) [Compound 30, 1-butyl-N-((1R,2R)-1-(2,3-dihydrobenzo[b][1,4]dioxin-6-yl)-1-hydroxy-3-(pyrrolidin-1-yl)propan-2-yl)pyrrolidine-3-carboxamide]
Data Range (% inhibition): NA (not active—a negative value was generated for % inhibition)

CC(C)Oc1ccc([C@@H](O)[C@@H](CN2CCCC2)NC(=O)[C@@H]2CCN(c3ccc(F)cc3)C2)cn1 [Compound 31, (R)-1-(4-fluorophenyl)-N-((1R,2R)-1-hydroxy-1-(6-isopropoxypyridin-3-yl)-3-(pyrrolidin-1-yl)propan-2-yl)pyrrolidine-3-carboxamide]
IC50: 100 to 1000 nM

O=C(N[C@H](CN1CCCC1)[C@H](O)c1ccc(OC2CCOCC2)c(Cl)c1)[C@@H]1CCN(c2ccc(F)cc2)C1 [Compound 32, (R)-N-((1R,2R)-1-(3-chloro-4-((tetrahydro-2H-pyran-4-yl)oxy)phenyl)-1-hydroxy-3-(pyrrolidin-1-yl)propan-2-yl)-1-(4-fluorophenyl)pyrrolidine-3-carboxamide]
IC50: 1 to 30 nM

O=C(N[C@H](CN1CCCC1)[C@H](O)c1ccc(OC2CCOCC2)c(Cl)c1)[C@H]1CCN(c2ccc(F)cc2)C1 [Compound 32A, (S)-N-((1R,2R)-1-(3-chloro-4-((tetrahydro-2H-pyran-4-yl)oxy)phenyl)-1-hydroxy-3-(pyrrolidin-1-yl)propan-2-yl)-1-(4-fluorophenyl)pyrrolidine-3-carboxamide]
Data Range (% inhibition): F (1-49% (or less than 50%))

O=C(N[C@H](CN1CCCC1)[C@H](O)c1ccc(OCC(F)(F)F)nc1)[C@@H]1CCN(c2ccc(Cl)cc2)C1 [Compound 33, (R)-1-(4-chlorophenyl)-N-((1R,2R)-1-hydroxy-3-(pyrrolidin-1-yl)-1-(6-(2,2,2-trifluoroethoxy)pyridin-3-yl)propan-2-yl)pyrrolidine-3-carboxamide]
Data Range (% inhibition): F (1-49% (or less than 50%))

O=C(N[C@H](CN1CCCC1)[C@H](O)c1ccc(OCC(F)(F)F)nc1)[C@H]1CCN(c2ccc(Cl)cc2)C1 [Compound 33A, (S)-1-(4-chlorophenyl)-N-((1R,2R)-1-hydroxy-3-(pyrrolidin-1-yl)-1-(6-(2,2,2-trifluoroethoxy)pyridin-3-yl)propan-2-yl)pyrrolidine-3-carboxamide]
Data Range (% inhibition): NA (not active—a negative value was generated for % inhibition)

O=C(N[C@H](CN1CCCC1)[C@H](O)c1ccc(OCC(F)(F)F)nc1)[C@@H]1CCN(c2ccc(F)cc2)C1 [Compound 34, (R)-1-(4-fluorophenyl)-N-((1R,2R)-1-hydroxy-3-(pyrrolidin-1-yl)-1-(6-(2,2,2-trifluoroethoxy)pyridin-3-yl)propan-2-yl)pyrrolidine-3-carboxamide]
Data Range (% inhibition): E (50-74% (or less than 75%))

O=C(N[C@H](CN1CCCC1)[C@H](O)c1ccc(OCC(F)(F)F)nc1)[C@H]1CCN(c2ccc(F)cc2)C1 [Compound 34A, (S)-1-(4-fluorophenyl)-N-((1R,2R)-1-hydroxy-3-(pyrrolidin-1-yl)-1-(6-(2,2,2-trifluoroethoxy)pyridin-3-yl)propan-2-yl)pyrrolidine-3-carboxamide]
Data Range (% inhibition): NA (not active—a negative value was generated for % inhibition)

O=C(N[C@H](CN1CCCC1)[C@H](O)c1cc(F)c2c(c1)OCCO2)[C@@H]1CCN(c2ccc(F)cc2)C1 [Compound 35, (R)-N-((1R,2R)-1-(8-fluoro-2,3-dihydrobenzo[b][1,4]dioxin-6-yl)-1-hydroxy-3-(pyrrolidin-1-yl)propan-2-yl)-1-(4-fluorophenyl)pyrrolidine-3-carboxamide]
IC50: 1 to 30 nM

O=C(N[C@H](CN1CCCC1)[C@H](O)c1cc(F)c2c(c1)OCCO2)[C@H]1CCN(c2ccc(F)cc2)C1 [Compound 35A, (S)-N-((1R,2R)-1-(8-fluoro-2,3-dihydrobenzo[b][1,4]dioxin-6-yl)-1-hydroxy-3-(pyrrolidin-1-yl)propan-2-yl)-1-(4-fluorophenyl)pyrrolidine-3-carboxamide]
IC50: 1 to 30 nM

O=C(N[C@H](CN1CCCC1)[C@H](O)c1ccc2c(c1)OCCO2)[C@@H]1CCN(c2nc3c(s2)CCCC3)C1 [Compound 36, (R)-N-((1R,2R)-1-(2,3-dihydrobenzo[b][1,4]dioxin-6-yl)-1-hydroxy-3-(pyrrolidin-1-yl)propan-2-yl)-1-(4,5,6,7-tetrahydrobenzo[d]thiazol-2-yl)pyrrolidine-3-carboxamide]
Data Range (% inhibition): F (1-49% (or less than 50%))
